# Test results reported in patent US20050238733A1, “Topical anesthesia of the urinary bladder” (priority 2000, published 2005).
# Columns and labels:
# [1] = pKa and base-form fraction of local anesthetics in aqueous solution; format: physicochemical
# Source text: The pKa is the pH at which 50% of the drug in an aqueous solution will be in the base form and 50% in the ion or charged form. As the pH of the solution falls, more of the drug converts into the ion form. Since the pH scale is a logarithmic scale, these changes are quite marked over a small pH range.
# The pKa is the pH at which 50% of the drug in solution will be in the base form and 50% in the salt form. As the pH rises above the pKa, more of the drug will dissociate and convert into the free base non-ionic form. […] Local anesthetics and their pharmacology are discussed in detail in Remington's Pharmaceutical Sciences, A. Osol, ed., Mack Pub. Co., Easton, Pa. (16th ed. 1980) and the Merck Index (11th ed., 1989).
# mast cells = conditions: low concentrations, opposite effect to inhibition; cited from earlier work
# [2] = not given; remark: listed apart in the source
smiles,measurement,setting,value
CCN(CC)CC(=O)Nc1c(C)cccc1C [lidocaine],lidocaine levels compared with previously reported levels,"alkalinized intravesical lidocaine, serum",ten times higher
same,peak blood (serum) levels of lidocaine,"human volunteers, 4, 5 or 6 mg/kg 5% lidocaine intravesical with 8.4% sodium bicarbonate, pH 8.0, all subjects, within the first hour",0.5-2 ug/cc
same,mean peak concentration of lidocaine in blood,"human volunteers, at 30 minutes",1.06 µg/mL
same,fraction of drug in the base form,[1]; pH 5.8,0.5%
same,fraction of drug in the base form,[1]; pH 6.8,5%
same,concentration at which lidocaine causes mast cells to release their histamine content,mast cells,< 1 mmol
same,peak blood levels of radiolabeled lidocaine,"[2]; anesthetized rabbits, intra-vesical, pH 8.1",800 CPM/0.1 ml of blood
same,tissue levels of radioactive labeled lidocaine in bladder mucosa,"[2]; live rabbit bladder, 45 minutes in situ, pH 8.45",declined rapidly to almost the same as at the pH levels below 8.0
same,peak tissue levels of radioactive labeled lidocaine in bladder mucosa,"[2]; live rabbit bladder, 45 minutes in situ, pH between 8.1 and 8.25","around 3,500,000 CPM/g of tissue"
